Laboratory results reported in patent US20250059205A1, “Heterocyclic Compounds and Methods of Use” (AMGEN INC., priority 2021, published 2025).

Assays:
[1] = target: His-tagged KRAS G12D protein (Homo sapiens, UniProt P01116, G12D); assay: KRAS G12D TR-FRET Assay; format: binding
[2] = target: GDP-bound KRAS protein (aa 1-169), containing both G12D and C118A amino acid substitutions (Homo sapiens, UniProt P01116, C118A/G12D); assay: KRAS G12D Coupled Nucleotide Exchange Assay; format: biochemical; settings: 2 h compound pre-incubation
Protocol: Following compound pre-incubation, purified SOS protein (aa 564-1049) and GTP (Roche 10106399001) were added to the assay wells and incubated for an additional 30 min. […] The assay plates were then read on a PerkinElmer EnVision Multilabel Reader, using AlphaScreen® technology, and data were analyzed using a 4-parameter logistic model to calculate IC50 values.

[3] = system: Phosphorylation of ERK1/2 in A-427 cells; assay: Phospho-ERK1/2 MSD Assay (A-427 cells); format: cell-based; settings: Homo sapiens, A-427, 2 h, 2 h treatment, read-out: p-ERK (A427 cells) IC50
Procedure, shortened: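 ERK1/2 phosphorylation measured by Meso Scale whole-cell lysate assay after A-427 cells were exposed to a titration of compound for 2 h at 37 °C.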

[4] = system: Phosphorylation of ERK1/2 in AsPC-1 cells; assay: Phospho-ERK1/2 MSD Assay (AsPC-1 cells); format: cell-based; settings: Homo sapiens, ASPC1, 2 h, 2 hours treatment, read-out: p-ERK (AsPC-1 cells) IC50
Procedure, shortened: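 Read-out: MSD electrochemiluminescent detection of phosphorylated ERK1/2 in whole-cell lysates, fitted to a 4-parameter logistic curve for IC50. Prior to lysis, AsPC-1 cells (25,000 per well) received a 2 h compound dose-response at 37 °C.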

Chain of GDP-bound KRAS protein (aa 1-169), containing both G12D and C118A amino acid substitutions (P01116 1-169 isoform P01116-2 G12D/C118A): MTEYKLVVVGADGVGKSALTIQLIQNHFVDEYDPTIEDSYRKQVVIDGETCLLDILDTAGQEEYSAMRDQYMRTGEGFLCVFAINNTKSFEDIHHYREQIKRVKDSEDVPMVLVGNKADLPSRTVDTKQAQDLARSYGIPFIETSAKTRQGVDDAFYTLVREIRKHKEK
Chain of His-tagged KRAS G12D protein (P01116 1-188 isoform P01116-2 G12D): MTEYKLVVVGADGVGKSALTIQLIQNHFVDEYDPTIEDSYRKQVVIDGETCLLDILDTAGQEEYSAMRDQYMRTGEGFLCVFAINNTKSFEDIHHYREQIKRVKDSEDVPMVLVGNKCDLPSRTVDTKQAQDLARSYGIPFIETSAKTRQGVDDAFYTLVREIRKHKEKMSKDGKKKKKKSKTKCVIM

SMILES	IC50 [1] [nM]	Avg 2 h Coupled Exchange IC50 [2] [nM]	IC50 [3] [nM]	IC50 [4] [nM]
CCc1cccc2cc(O)cc(-c3c(Cl)cc4c(N5C[C@H]6CC[C@@H](C5)N6)nc(OC[C@@]56CCCN5C[C@H](F)C6)nc4c3F)c12 [Example 170, 4-(4-((1R,5S)-3,8-diazabicyclo[3.2.1]octan-3-yl)-6-chloro-8-fluoro-2-(((2R,7aS)-2-fluorotetrahydro-1H-pyrrolizin-7a(5H)-yl)methoxy)quinazolin-7-yl)-5-ethylnaphthalen-2-ol]	3	3	86	126
CCc1cccc2cc(O)cc(-c3cc4nc(OC[C@@]56CCCN5C[C@H](F)C6)nc(N5C[C@H]6CC[C@@H](C5)N6)c4cc3F)c12 [Example 171, 4-(4-((1R,5S)-3,8-diazabicyclo[3.2.1]octan-3-yl)-6-fluoro-2-(((2R,7aS)-2-fluorotetrahydro-1H-pyrrolizin-7a(5H)-yl)methoxy)quinazolin-7-yl)-5-ethylnaphthalen-2-ol]	6	3	42	169
CCc1c(F)ccc2cc(O)cc(-c3c(F)cc4c(N5[C@@H]6CCC[C@H]5CNC6)nc(OC[C@@]56CCCN5C[C@H](F)C6)nc4c3F)c12 [Example 172, 4-(4-((1R,5S)-3,9-diazabicyclo[3.3.1]nonan-9-yl)-6,8-difluoro-2-(((2R,7aS)-2-fluorotetrahydro-1H-pyrrolizin-7a(5H)-yl)methoxy)quinazolin-7-yl)-5-ethyl-6-fluoronaphthalen-2-ol]	85	36	5430	2920
Oc1cc(-c2cc3nc(OC[C@@]45CCCN4C[C@H](F)C5)nc(N4C[C@@H]5CC[C@H]4CN5)c3cc2F)c2c(F)c(F)ccc2c1 [Example 173, 4-(4-((1S,4S)-2,5-diazabicyclo[2.2.2]octan-2-yl)-6-fluoro-2-(((2R,7aS)-2-fluorotetrahydro-1H-pyrrolizin-7a(5H)-yl)methoxy)quinazolin-7-yl)-5,6-difluoronaphthalen-2-ol]	2	3	153	366
CCc1c(F)ccc2cc(O)cc(-c3cc4nc(OC[C@@]56CCCN5C[C@H](F)C6)nc(N5C[C@@H]6CC[C@H]5CN6)c4cc3F)c12 [Example 174, 4-(4-((1S,4S)-2,5-diazabicyclo[2.2.2]octan-2-yl)-6-fluoro-2-(((2R,7aS)-2-fluorotetrahydro-1H-pyrrolizin-7a(5H)-yl)methoxy)quinazolin-7-yl)-5-ethyl-6-fluoronaphthalen-2-ol]	4	5	57	64
C#Cc1cccc2cc(O)cc(-c3c(F)cc4c(N5C[C@@H]6CC[C@H]5CN6)nc(OC[C@@]56CCCN5C[C@H](F)C6)nc4c3F)c12 [Example 180, 4-(4-((1S,4S)-2,5-diazabicyclo[2.2.2]octan-2-yl)-6,8-difluoro-2-(((2R,7aS)-2-fluorotetrahydro-1H-pyrrolizin-7a(5H)-yl)methoxy)quinazolin-7-yl)-5-ethynylnaphthalen-2-ol]	3	4	3	18
C#Cc1c(F)ccc2cc(O)cc(-c3cc4nc(OC[C@@]56CCCN5C[C@H](F)C6)nc(N5C[C@H]6CC[C@@H](C5)N6)c4cc3F)c12 [Example 181, 4-(4-((1R,5S)-3,8-diazabicyclo[3.2.1]octan-3-yl)-6-fluoro-2-(((2R,7aS)-2-fluorotetrahydro-1H-pyrrolizin-7a(5H)-yl)methoxy)quinazolin-7-yl)-5-ethynyl-6-fluoronaphthalen-2-ol]	1	1	3	18
C#Cc1cccc2cc(O)cc(-c3cc4nc(OC[C@@]56CCCN5C[C@H](F)C6)nc(N5C[C@H]6CC[C@@H](C5)N6)c4cc3F)c12 [Example 182, 4-(4-((1R,5S)-3,8-diazabicyclo[3.2.1]octan-3-yl)-6-fluoro-2-(((2R,7aS)-2-fluorotetrahydro-1H-pyrrolizin-7a(5H)-yl)methoxy)quinazolin-7-yl)-5-ethynylnaphthalen-2-ol]	1	2	4	33
C#Cc1cccc2cc(O)cc(-c3c(F)cc4c(N5C[C@H]6C[C@@H](C5)N6)nc(OC[C@@]56CCCN5C[C@H](F)C6)nc4c3F)c12 [Example 183, 4-(4-((1R,5S)-3,6-diazabicyclo[3.1.1]heptan-3-yl)-6,8-difluoro-2-(((2R,7aS)-2-fluorotetrahydro-1H-pyrrolizin-7a(5H)-yl)methoxy)quinazolin-7-yl)-5-ethynylnaphthalen-2-ol]	2	4	1480	5400
C#Cc1cccc2cc(O)cc(-c3ccc4c(N5C[C@H]6CC[C@@H](C5)N6)nc(OC[C@@]56CCCN5C[C@H](F)C6)nc4c3F)c12 [Example 185, 4-(4-((1R,5S)-3,8-diazabicyclo[3.2.1]octan-3-yl)-8-fluoro-2-(((2R,7aS)-2-fluorotetrahydro-1H-pyrrolizin-7a(5H)-yl)methoxy)quinazolin-7-yl)-5-ethynylnaphthalen-2-ol]	1	1	1	16
C#Cc1c(F)ccc2cc(O)cc(-c3ccc4c(N5C[C@H]6CC[C@@H](C5)N6)nc(OC[C@@]56CCCN5C[C@H](F)C6)nc4c3F)c12 [Example 186, 4-(4-((1R,5S)-3,8-diazabicyclo[3.2.1]octan-3-yl)-8-fluoro-2-(((2R,7aS)-2-fluorotetrahydro-1H-pyrrolizin-7a(5H)-yl)methoxy)quinazolin-7-yl)-5-ethynyl-6-fluoronaphthalen-2-ol]	3	3	1	5
C#Cc1c(F)ccc2cc(O)cc(-c3ccc4c(N5[C@@H]6CC[C@H]5CNC6)nc(OC[C@@]56CCCN5C[C@H](F)C6)nc4c3F)c12 [Example 187, 4-(4-((1R,5S)-3,8-diazabicyclo[3.2.1]octan-8-yl)-8-fluoro-2-(((2R,7aS)-2-fluorotetrahydro-1H-pyrrolizin-7a(5H)-yl)methoxy)quinazolin-7-yl)-5-ethynyl-6-fluoronaphthalen-2-ol]	2	1	5	16
C#Cc1c(F)ccc2cc(O)cc(-c3c(F)cc4c(N5C[C@@H]6CC[C@H]5CN6)nc(OC[C@@]56CCCN5C[C@H](F)C6)nc4c3F)c12 [Example 188, 4-(4-((15,4S)-2,5-diazabicyclo[2.2.2]octan-2-yl)-6,8-difluoro-2-(((2R,7aS)-2-fluorotetrahydro-1H-pyrrolizin-7a(5H)-yl)methoxy)quinazolin-7-yl)-5-ethynyl-6-fluoronaphthalen-2-ol]	2	2	2	16
C#Cc1c(F)ccc2cc(O)cc(-c3c(F)cc4c(N5C[C@H]6CC[C@@H](C5)N6)nc(OC[C@@]56CCCN5C[C@H](F)C6)nc4c3F)c12 [Example 189, 4-(4-((1R,5S)-3,8-diazabicyclo[3.2.1]octan-3-yl)-6,8-difluoro-2-(((2R,7aS)-2-fluorotetrahydro-1H-pyrrolizin-7a(5H)-yl)methoxy)quinazolin-7-yl)-5-ethynyl-6-fluoronaphthalen-2-ol]	4	3	1	2
C#Cc1cccc2cc(O)cc(-c3c(F)cc4c(N5C[C@H]6CC[C@@H](C5)N6)nc(OC[C@@]56CCCN5C[C@H](F)C6)nc4c3F)c12 [Example 190, 4-(4-((1R,5S)-3,8-diazabicyclo[3.2.1]octan-3-yl)-6,8-difluoro-2-(((2R,7aS)-2-fluorotetrahydro-1H-pyrrolizin-7a(5H)-yl)methoxy)quinazolin-7-yl)-5-ethynylnaphthalen-2-ol]	4	5	1	4
C#Cc1cccc2cc(O)cc(-c3ccc4c(N5C[C@H]6CC[C@@H](C5)N6)nc(OC[C@@]56CCCN5C[C@H](F)C6)nc4c3C)c12 [Example 191, 4-(4-((1R,5S)-3,8-diazabicyclo[3.2.1]octan-3-yl)-2-(((2R,7aS)-2-fluorotetrahydro-1H-pyrrolizin-7a(5H)-yl)methoxy)-8-methylquinazolin-7-yl)-5-ethynylnaphthalen-2-ol]	3	4	4	38
Cc1c(Cl)cc2[nH]ncc2c1-c1ccc2c(N3C[C@H]4CC[C@@H](C3)N4)nc(OC[C@@]34CCCN3C[C@H](F)C4)nc2c1F [Example 192, 4-((1R,5S)-3,8-Diazabicyclo[3.2.1]octan-3-yl)-7-(6-chloro-5-methyl-1H-indazol-4-yl)-8-fluoro-2-(((2R,7aS)-2-fluorotetrahydro-1H-pyrrolizin-7a(5H)-yl)methoxy)quinazoline]	4	2	150	532
